# Assays:
# α9/α10 combination = target: T1, α9/α10 combination (Homo sapiens, UniProt Q9GZZ6+Q9UGM1, N442S); experiment: Two electrode voltage clamp recording in Xenopus oocytes injected with α9 plus α10; type: cell-based
# T1 construct: expressed in transfected cells; host or cells: Xenopus laevis oocytes injected with cRNA made from cDNAs in pSP64T.GL+
# Procedure: (§1) 5 minutes washout time was allowed between each response. The data is corrected for run-up or run-down and expressed as a percentage of the maximum evoked current. Curves have been fitted using the non-linear curve fitting routine of Graph Pad. The fit is constrained to a lower bound of 0 while the upper bound is unconstrained. The correlation coefficients are R^2=0.9999 and 0.9980 for α9 and α9/α10, respectively.
# (§2) Xenopus laevis females were purchased from Blades Biological, UK. The animals were maintained and dissected as described in Gould (1994) Membrane Protein and Expression Systems: a User's Guide Portland Press, London. Stage V or VI oocytes were de-folliculated by incubating with 0.2% collagenase (Sigma) in calcium-free Barth's solution on a vibrating platform set at 8 Hz for 2 hours at 18° C. Oocytes were then maintained in normal Barth's solution (containing 160 IU/ml penicillin and 74 IU/ml streptomycin). On the following day oocytes were injected with 1 to 25 ng cRNA using a Drummond Nanoject and left for at least three days before recording. cRNA was synthesised from cDNAs previously subcloned into the pSP64T.GL+ vector using the SP6 Message Machine Kit (Ambion).
# (§3) Two electrode voltage clamp recording was carried out using a TURBO TEC-10CD (NPI Electronic GmbH, D-71732 Tamm, Germany). For current recording oocytes were placed in ND-96 Ringer (containing 96 mM NaCl, 1.8 mM CaCl2, 2 mM KCl, 1 mM MgCl2 and 5 mM HEPES (pH=7.4)) and impaled with two electrodes filled with 3 M KCl and 1 to 2 MΩ tip resistance. Recording were made in oocytes in which the membrane potential stabilised to potentials more negative than −20 mV during a 20 minute stabilisation period.
# (§4) α10 nAChR function and pharmacology was investigated in Xenopus oocytes using two electrode voltage clamp techniques.
# [1] = target: T2, α9 alone (homomeric α9 nAChR) (Homo sapiens, UniProt Q9UGM1, N442S); experiment: Two electrode voltage clamp recording in Xenopus oocytes injected with α9 alone; type: cell-based
# T2 construct: expressed in transfected cells; host or cells: Xenopus laevis oocytes injected with cRNA made from cDNA in pSP64T.GL+
# Procedure: as §1, §2, §3, §4
# [2] = read-out: IC50 for inhibition of ACh-evoked response
# T2 sequence (Q9UGM1 23-479 N442S): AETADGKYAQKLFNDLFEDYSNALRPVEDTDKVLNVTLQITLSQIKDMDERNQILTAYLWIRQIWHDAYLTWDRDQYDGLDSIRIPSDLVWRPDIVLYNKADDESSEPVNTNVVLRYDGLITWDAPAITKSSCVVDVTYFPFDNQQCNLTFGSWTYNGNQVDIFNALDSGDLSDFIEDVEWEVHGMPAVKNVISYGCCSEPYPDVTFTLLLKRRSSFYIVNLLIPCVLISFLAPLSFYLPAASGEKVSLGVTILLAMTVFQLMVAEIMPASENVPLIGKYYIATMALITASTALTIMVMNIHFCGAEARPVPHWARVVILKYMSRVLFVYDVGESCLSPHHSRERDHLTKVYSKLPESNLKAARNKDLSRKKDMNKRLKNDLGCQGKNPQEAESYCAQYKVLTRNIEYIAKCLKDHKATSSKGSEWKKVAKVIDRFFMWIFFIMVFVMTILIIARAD
# T1 sequence (Q9GZZ6 25-450): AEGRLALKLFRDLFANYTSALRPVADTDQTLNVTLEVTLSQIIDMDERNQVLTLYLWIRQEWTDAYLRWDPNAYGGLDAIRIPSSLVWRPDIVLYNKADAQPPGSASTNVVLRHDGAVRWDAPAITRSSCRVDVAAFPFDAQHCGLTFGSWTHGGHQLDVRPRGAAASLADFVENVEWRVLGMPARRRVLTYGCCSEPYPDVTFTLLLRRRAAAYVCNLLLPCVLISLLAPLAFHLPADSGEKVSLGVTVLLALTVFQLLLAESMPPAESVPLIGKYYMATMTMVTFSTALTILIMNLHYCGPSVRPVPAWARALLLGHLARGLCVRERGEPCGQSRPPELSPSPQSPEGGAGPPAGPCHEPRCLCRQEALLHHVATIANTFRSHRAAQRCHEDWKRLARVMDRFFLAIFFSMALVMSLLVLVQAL
# T1 sequence (Q9UGM1 23-479 N442S): as the sequence (Q9UGM1 23-479 N442S) above
Molecule,"proportional increase in area-under-the curve for normalised responses (α9/α10 combination; 30 s ACh application compared to 10 s application, α9/α10, N=2) [%]","proportional increase in area-under-the curve for normalised responses ([1]; 30 s ACh application compared to 10 s application, α9 alone, N=2) [%]",Hill coefficient of inhibition curve (α9/α10 combination),IC50 (α9/α10 combination; [2]) [nM],Hill coefficient of inhibition curve [1],"IC50 [1, 2] [nM]"
"CC(=O)OCC[N+](C)(C)C [ACh, acetylcholine]",44,82,–,–,–,–
α-bungarotoxin [α-Btx],–,–,−0.89,3.7,−1.25,2.7

# Reference: patent US20060127914A1 (priority 1999, published 2006)
